Consider seven compounds from patent US6635662B2, “Radicicol derivatives” (Kyowa Hakko Kogyo Co., Ltd., priority 1996, dated 2003).

Assay [1] has as its system rat normal fibroblast cell line 3Y1-B. As to the kind of experiment: Growth inhibition test (MTT) on 3Y1-B. Format: cell-based. As to conditions: 3Y1-B cells, 72 hours. Here is the method:
(§1) The cells were inoculated into a 96 well microplate (# 167008, manufactured by Nunc) in an amount of 1,000 cells per well and pre-cultured at 37° C. for 24 hours in a 5% carbon dioxide gas incubator using Dulbacco's modified Eagle's medium (DMEM) which had been supplemented with 10% fetal calf serum (FCS). Next, a DMSO solution of each test compound which had been adjusted to 10 mM was serially diluted with the culturing medium and add to the wells in 50 μl portions. Thereafter, the culturing was continued at 37° C. for 72 hours in the 5% carbon dioxide gas incubator. Five hours before completion of the culturing, 3-(4,5-dimethylthiazo-2-yl)-2,5-diphenyltetrazolium bromide (manufactured by Sigma, hereinafter referred to as “MTT”) which had been dissolved in the culturing medium to a final concentration of […] was dispensed into the wells in 50 μl portions. After completion of the culturing, DMSO was dispensed into the wells in […] portions, and the plate was vigorously stirred using a plate mixer to dissolve MTT-formazan crystals completely. Thereafter, absorbance at 550 nm was measured using a microplate reader MTP-32 (manufactured by Corona Denki). The cell growth inhibition activity was expressed by 50% inhibition concentration (IC50).

Assay [2] concerns v-src oncogene transformed cell line SR-3Y1. In words: Growth inhibition test (MTT) on SR-3Y1. The format is cell-based. Conditions: Rattus norvegicus, SR3Y1, SR-3Y1 cells, 72 hours. The procedure: as §1
In another assay the test system is Raf-1 protein. As to the kind of experiment: Effect of decreasing intracellular Raf-1 protein quantity in KNRK 5.2 cells. Format: cell-based, rat. Conditions: 40 hours, Raf-1 protein/total Erk2 protein ratio halved, read-out: Raf-1 protein quantity decrease: IC50. Here is the method:
(§2) Activated K-Ras gene-introduced rat kidney epithelial cell line KNRK 5.2 was cultured at 37° C. for 40 hours in an atmosphere of 5% carbon dioxide gas using Dulbecco's modified Eagle's medium (DMEM) which was supplemented with 10% fetal calf serum (FCS) and to which was added each radicicol derivative at respective test concentration. The resulting cells were lysed for 30 minutes at 4° C. in a cooled buffer for lysis use [50 mM HEPES NaOH, pH 7.4, 250 mM sodium chloride (NaCl), 1 mM ethylenediaminetetraacetic acid (EDTA), 1% Nonidet P-40 (NP40), 1 mM dithiothreitol (DTT), 1 mM phenylmethylsulfonyl fluoride (PMSF), 5 μg/ml leupeptin, 2 mM sodium orthovanadate (Na3VO4), 1 mM sodium fluoride (NaF), 10 mM β-glycerophosphate] and then centrifuged at 30,000 G for 10 minutes. The protein content of the thus prepared supernatant fluids was measured to prepare samples having the same protein quantity for each lane, and then separation of proteins was carried out by SDS-PAGE. The thus separated protein samples were transferred on a polyvinylidene difluoride (PVDF) membrane, and then anti-phosphorylation MAPK antibody (anti-phospho MAPK, manufactured by New England Biolabs), anti-Erk2 antibody (anti-Erk2, manufactured by Upstate Biotechnology) and anti-Raf-1 antibody (anti-Raf-1 (C-12), manufactured by Santa Cruz Biotechnology) were added thereto as primary antibodies and allowed to react with the proteins on the membrane. Thereafter, a horseradish peroxidase-labeled secondary antibody (anti-rabbit Ig antibody or anti-mouse Ig antibody, manufactured by Amersham) capable of reacting with respective primary antibodies was added thereto as the secondary antibody to carry out the reaction. Detection was carried out using ECL reagent (manufactured by Amersham), and the amount of phosphorylated Erk2 protein, total Erk2 protein and Raf-1 protein was determined by carrying out density scanning of the bands generated on the X-ray film. The Erk2 phosphorylation inhibition activity of radicicol derivatives is determined by calculating the ratio of phosphorylated Erk2 protein (phosphorylated Erk2 protein/total Erk2 protein) based on the results prepared from the samples of respective drug concentrations, which is expressed as the concentration of each derivative (IC50) by which the ratio becomes half in comparison with the case in which the drug is not added.

A further assay concerns Erk2 phosphorylation. As to the kind of experiment: Erk2 phosphorylation inhibition activity in KNRK 5.2 cells. Format: cell-based. Conditions: Rattus norvegicus, 40 hours, phosphorylated Erk2/total Erk2 ratio halved. The procedure:
as §2

Assay [3] concerns intracellular tyrosine kinase. As to the kind of experiment: Inhibition test of intracellular tyrosine kinase (tyrosine-phosphorylated protein, Western blot). As to conditions: Rattus norvegicus, SR3Y1; SR-3Y1 cells, 15 hours culture, tyrosine-phosphorylated protein reduced to half vs control; read-out: Inhibitory activity of intracellular tyrosine kinase IC50. The format is cell-based. The procedure:
SR-3Y1 cells were cultured at 37° C. for 15 hours in an atmosphere of 5% carbon dioxide, using Dulbecco's modified Eagle's medium (DMEM) containing 10% fetal calf serum (FCS), to which each radicicol derivative to be tested had been added in varied concentration. The thus cultured cells were lysed at 4° C. for 20 minutes in a cooled buffer for lysis use (50 mM Tris HCl, pH 7.5, 150 mM sodium chloride (NaCl), 1% Triton X-100, 0.1% sodium dodecyl sulfate (SDS), 1% sodium deoxycholate, 2 mM ethylenediaminetetraacetic acid (EDTA), 1 mM phenylmethanesulfonyl fluoride (PMSF), 20 μM leupeptin, 0.15 unit/ml aprotinin, 1 mM sodium orthovanadate (Na3VO4) and then centrifuged at 20,000 G for 30 minutes. After measuring protein concentration in the resulting supernatant fluid, samples were adjusted to the same protein quantity per lane to carry out separation of protein by SDS-PAGE. […] Detection was carried out using ECL reagent (Amersham Co.), and the amount of tyrosine-phosphorylated protein was determined by scanning the density of bands prepared on an X-ray film. […]

Assay [4] relates to human breast cancer MX-1 solid tumor. In words: Antitumor test on nude mouse-transplanted human breast cancer MX-1 solid tumor. Conditions: tumor volume ratio, 100 mg/kg per day i.v. once a day for 5 days, measured day 12 after administration. Format: in vivo. Here is the method: From a tumor lump of a human breast cancer cell line MX-1 subcultured in nude mice (BALB/c nu/nu mice: CLEA Japan), a portion showing good growth was selected and cut into a 2 mm square fragment which was then transplanted under the abdominal side skin of each male nude mouse of 7 to 9 weeks of age using a trocar. The tumor size was measured on the 13th day after the tumor transplantation to select properly growing tumors having a tumor volume of 100 to 300 mm^3 (calculated by a calculation formula of “major axis×minor axis^2×½”), the mice were optionally grouped into 5 animals per group, and then each test compound which had been dissolved in a 7.5% cremohor EL (manufactured by Sigma)/5% dimethylacetamide (DMA)/87.5% physiological saline solution was administered to the mice by intravenous injection at a dosage of 0.05 ml (100 mg/kg) per day, once a day for 5 days. The antitumor activity of each test compound was expressed by a ratio (T/C) of the tumor volume (T) in the test drug-administered group to the tumor volume (C) in the control group on the 12th or 14th day after administration of the test compound.

pIC50: −log10 of the molar value.

For the compound `CNC(=O)ON=C1/C=C/C=C\C2OC2CC(C)OC(=O)c2c(O)cc(O)c(Cl)c2C1` (stereo not shown) [Compound 74], the pIC50 in assay [1] is 7.14; in assay [2] it was 7.57.

Take `CC1CC2OC2C=CC=CC(=NOCCCCN2CCOCC2)Cc2c(Cl)c(O)cc(O)c2C(=O)O1` (stereo not shown) [Compound 64]: the pIC50 is 6.72 with Raf-1 protein and 6.96 in the assay on Erk2 phosphorylation.

With `CCOC(=O)ON=C1/C=C/C=C\C2OC2CC(C)OC(=O)c2c(O)cc(O)c(Cl)c2C1` (stereo not shown) [Compound 73], the pIC50 in assay [3] was 6.89.

For the compound `CC1CC2OC2C=CC=CC(=NOCc2cccnc2)Cc2c(Cl)c(O)cc(O)c2C(=O)O1` (stereo not shown) [Compound 53], the pIC50 in assay [1] is 8.10; in the assay with Raf-1 protein, 6.42; in assay [2] it was > 8.40; with Erk2 phosphorylation, 7.15. Moreover, in assay [4], the “T/C (%)” value is recorded as 46%.

`CC1CC2OC2C=CC=CC(=NOCCN2CCCC2=O)Cc2c(Cl)c(O)cc(O)c2C(=O)O1` (stereo not shown) [Compound 69]: the pIC50 in assay [1] was 8.10; in the assay on Raf-1 protein it was 6.92; in assay [2] it was 8.40; in the assay with Erk2 phosphorylation it was 7.22. Further, the “T/C (%)” value in assay [4] is 4%.

Consider `C[C@@H]1C[C@H]2O[C@@H]2/C=C\C=C\C(=O)Cc2c(Cl)c(O)cc(O)c2C(=O)O1` [Radicicol, radicicol], for which the pIC50 in assay [1] is 6.11; in assay [3], 6.43; in assay [2], 7.38.

As to `CC1CC2OC2C=CC=CC(=NOCc2ccccc2S(=O)(=O)N(C)C)Cc2c(Cl)c(O)cc(O)c2C(=O)O1` (stereo not shown) [Compound 50], the pIC50 in assay [1] is 6.92; in the assay with Raf-1 protein, 6.47; in assay [2], 7.68; with Erk2 phosphorylation, 6.46.

One may read the pIC50 as the negative decadic logarithm of the IC50, by convention in mol/L.
